Test results published in US11230542B2, “Inhibitors of integrated stress response pathway” (Praxis Biotech LLC, priority 2017, dated 2022).

System: C57Bl/6J mice with TBI
Assay: Learning memory, long-term memory and social behavior after traumatic brain injury (TBI)
Assay type: in vivo, mouse
Text: Wild type three-month-old male C57Bl/6J mice were randomly assigned to TBI or sham surgeries. Animals were anesthetized and maintained at 2% isoflurane and secured to a stereotaxic frame with nontraumatic ear bars. The hair on their scalp was removed, and eye ointment and betadine were applied to their eyes and scalp, respectively. A midline incision was made to expose the skull. A unilateral TBI was induced in the right parietal lobe using the controlled cortical impact model (Nat Neurosci. 2014 August; 17(8): 1073-82). Mice received a 3.5-mm diameter craniectomy, a removal of part of the skull, using an electric microdrill. The coordinates of the craniectomy were: anteroposterior, −2.00 mm and mediolateral, +2.00 mm with respect to bregma. After the craniectomy, the contusion was induced using a 3-mm convex tip attached to an electromagnetic impactor (Leica). The contusion depth was set to 0.95 mm from dura with a velocity of 4.0 m/s sustained for 300 ms. These injury parameters were chosen to target, but not penetrate, the hippocampus. Sham animals received craniectomy surgeries but without the focal injury. After focal TBI surgery, the scalp was sutured and the animal was allowed to recover in an incubation chamber set to 37° C. Animals were returned to their home cage after showing normal walking and grooming behavior.
After 28 days post injury (dpi), animals were tested on the RAWM assay (see above). Animals ran 12 trials during learning test and 4 trials during memory test. Last three trials from learning test and all four trials from memory test were averaged to determine learning memory (learning test) and long-term memory (memory test). […]
To quantitate social tendencies of the treated mice, the time spent with a novel conspecific mouse was measured in a Crawley's three-chamber box (J Vis Exp. 2011; (48): 2473). […] The time spent with the never-before-met animal was recorded. Direct contact between the treated mouse and the housing cage or stretching of the body of the subject mouse in an area 3-5 cm around the housing cage is counted as an active contact.

O=C(COc1ccc(Cl)cc1)N[C@H]1CC[C@H](NC[C@@H](O)COc2ccc(Cl)cc2)CC1 (single isomer, unassigned) [Compound 3, (+)-2-(4-chlorophenoxy)-N-(4-((3-(4-chlorophenoxy)-2-hydroxypropyl)amino)cyclohexyl)acetamide]
learning memory, number of errors in RAWM (5 mg/kg intraperitoneally, 28-29 dpi, versus vehicle): made significantly less errors over the course of training | long-term memory, RAWM (35 dpi, 7 days after training, versus vehicle): a similar trend was seen | social behavior, time spent with the novel mouse (42 dpi, Crawley's three-chamber box): spent more time with the novel mouse at levels similar to those animals from sham group
